Experimental data from ChEMBL document CHEMBL1201862, “PubChem BioAssay data set” (2004).
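How tested: cells in 96-well plates exposed to compound for 48 hours at five concentrations. GI50 is the concentration that inhibits growth by half.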 Active and inactive are the calls of the source. Rule as the data show it: active = GI50 up to about 1.1 µM and inactive = higher.

Key:
Assay in all cases: inhibition of tumour cell growth, NCI panel, 48 h
SF-539 = tested on: SF-539
RPMI-8226 = tested on: RPMI-8226
K562 = tested on: K562
CAKI-1 = tested on: CAKI-1
ACHN = tested on: ACHN
A498 = tested on: A498
SN12C = tested on: SN12C
OVCAR-5 = tested on: OVCAR-5
HOP-62 = tested on: HOP-62
SK-OV-3 = tested on: SK-OV-3
OVCAR-8 = tested on: OVCAR-8
SF-268 = tested on: SF-268
NCI-H522 = tested on: NCI-H522
CCRF-CEM = tested on: CCRF-CEM
HOP-92 = tested on: HOP-92
RXF 393 = tested on: RXF 393

Measured: GI50

Nc1ccc(CCN2CCN(c3cccc(C(F)(F)F)c3)CC2)cc1
inactive: SF-539 > 100 µM | RPMI-8226 45.2 µM | K562 70.1 µM | CAKI-1 > 100 µM | ACHN > 100 µM | A498 80.9 µM | SN12C > 100 µM | OVCAR-5 > 100 µM | HOP-62 > 100 µM | SK-OV-3 > 100 µM | OVCAR-8 > 100 µM | SF-268 > 100 µM | NCI-H522 14.3 µM | CCRF-CEM 5.07 µM | HOP-92 54.8 µM | RXF 393 89.5 µM

COc1ccc(/C=N/N=C(\N)NO)c(OC)c1C
inactive: SF-539 19.2 µM | RPMI-8226 23.7 µM | K562 10.1 µM | CAKI-1 8.49 µM | ACHN 11.1 µM | A498 25.4 µM | SN12C 26 µM | OVCAR-5 2.47 µM | HOP-62 7.19 µM | SK-OV-3 34.4 µM | OVCAR-8 20.2 µM | SF-268 15.4 µM | NCI-H522 12.5 µM | CCRF-CEM 29.9 µM | HOP-92 19.8 µM | RXF 393 12.2 µM

O=C(CC1C(=O)c2ccccc2C1=C1C(=O)c2ccccc2C1=O)c1ccccc1 (stereo unspecified)
inactive: SF-539 > 100 µM | RPMI-8226 > 100 µM | K562 30.3 µM | CAKI-1 > 100 µM | ACHN 80.4 µM | A498 > 100 µM | SN12C > 100 µM | OVCAR-5 > 100 µM | HOP-62 > 100 µM | SK-OV-3 > 100 µM | OVCAR-8 > 100 µM | SF-268 > 100 µM | NCI-H522 19.9 µM | CCRF-CEM 32 µM | HOP-92 74.3 µM | RXF 393 > 100 µM

O=C(O)C1CC2CC(=O)C1C2 (stereo unspecified)
inactive: SF-539 > 100 µM | RPMI-8226 > 100 µM | K562 > 100 µM | CAKI-1 > 100 µM | ACHN > 100 µM | A498 > 100 µM | SN12C > 100 µM | OVCAR-5 > 100 µM | HOP-62 > 100 µM | SK-OV-3 > 100 µM | OVCAR-8 > 100 µM | SF-268 > 100 µM | NCI-H522 > 100 µM | CCRF-CEM > 100 µM | HOP-92 > 100 µM | RXF 393 > 100 µM

CCOc1ccc(NCC2CC/C(=C\c3ccc(Cl)cc3)C2=O)cc1 (stereo unspecified)
inactive: SF-539 > 41.7 µM | RPMI-8226 2.54 µM | K562 6.81 µM | CAKI-1 > 45.1 µM | ACHN > 40.6 µM | A498 > 49.5 µM | SN12C > 42.8 µM | OVCAR-5 > 100 µM | HOP-62 > 100 µM | SK-OV-3 > 100 µM | OVCAR-8 > 38.3 µM | SF-268 > 55.2 µM | NCI-H522 6.25 µM | CCRF-CEM 9.29 µM | HOP-92 20.3 µM | RXF 393 > 47.9 µM

O=C(Nc1ccc(Cl)cc1)C1C(=O)C(=O)N(c2ccc(Cl)cc2)C1=O (stereo unspecified)
inactive: SF-539 > 100 µM | RPMI-8226 > 100 µM | K562 41.1 µM | CAKI-1 > 100 µM | ACHN 89.9 µM | A498 60.7 µM | SN12C 81.1 µM | OVCAR-5 > 100 µM | SK-OV-3 > 100 µM | OVCAR-8 > 100 µM | SF-268 > 100 µM | NCI-H522 > 100 µM | CCRF-CEM 73.6 µM | HOP-92 29.1 µM | RXF 393 > 100 µM

O=C1CCC2(c3ccc(F)cc3)Nc3ccccc3N12 (stereo unspecified)
inactive: SF-539 > 100 µM | RPMI-8226 > 100 µM | K562 > 100 µM | CAKI-1 > 100 µM | ACHN > 100 µM | A498 > 100 µM | SN12C > 100 µM | OVCAR-5 > 100 µM | HOP-62 > 100 µM | SK-OV-3 > 100 µM | OVCAR-8 > 100 µM | SF-268 > 100 µM | NCI-H522 > 100 µM | CCRF-CEM > 100 µM | HOP-92 > 100 µM | RXF 393 > 100 µM
